One experiment concerns the target T1, human RORγ (Homo sapiens, UniProt P51449).
T1 construct: from Ser253 to Lys518 for human RORγ; expressed in transfected cells; host or cells: CHO cells (transient co-transfection with pG5-Luc)
T1 sequence (P51449 253-518): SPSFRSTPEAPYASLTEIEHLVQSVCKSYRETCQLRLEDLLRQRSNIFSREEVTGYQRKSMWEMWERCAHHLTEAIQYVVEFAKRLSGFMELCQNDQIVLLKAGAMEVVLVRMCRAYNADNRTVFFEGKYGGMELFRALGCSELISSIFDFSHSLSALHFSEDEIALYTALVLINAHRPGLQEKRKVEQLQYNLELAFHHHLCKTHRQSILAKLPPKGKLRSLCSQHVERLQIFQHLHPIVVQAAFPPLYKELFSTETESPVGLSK
Description: In-vitro reporter gene assay for inhibitory activity against RORγ transcription, Test Method A (GAL4-hRORγ LBD / pG5-Luc in CHO cells). In kind it is cell-based. As to conditions: luciferase reporter, 2 days. The procedure: (§1) In-Vitro Assay for Inhibitory Activity Against RORγ Transcription
(§2) Inhibitory activity against RORγ transcription was assessed for test compounds by either of the following Test Method A or B of reporter gene assay.
(§3) cDNAs encoding human and mouse RORγ ligand binding domains (LBD) were obtained based on the sequences of human RORγ (Genbank registered number NM_005060.3) and mouse RORγ (Genbank registered number NM_011281.2) (LBD sequences: from Ser253 to Lys518 for human RORγ; from Ile251 to Lys516 for mouse RORγ).
(§4) LBD cDNAs of human and mouse RORγ were inserted into pFA-CMV vector (Stratagene), which expresses GAL4-DNA binding domain fusion protein. The resulting plasmids are hereinafter referred to as GAL4-hRORγ plasmid and GAL4-mRORγ plasmid, respectively.
(§5) GAL4-hRORγ plasmid or GAL4-mRORγ plasmid was transiently co-transfected into Chinese hamster ovary cells (CHO cells) with pG5-Luc (Promega), reporter plasmid expressing firefly luciferase in a GAL4-dependent manner.
(§6) TransIT (Registered trademark) CHO Transfection Kit (Mirus) was used to co-transfect CHO cells with the plasmids. One day prior to the assay, CHO cells were suspended in HAM F-12 Nutrient medium containing 10% (v/v) fetal bovine serum and seeded at 6×10^6 cells per 175 cm^2 cell culture flask each. 54 μL of TransIT (Registered trademark) CHO reagent was added into a 15 mL tube containing 1.16 mL of HAM F-12 Nutrient medium without fetal bovine serum, and then mixed and incubated at room temperature for 10 minutes. 36 μL of a plasmid solution containing 400 ng of GAL4-hRORγ plasmid, 9000 ng of pG5-Luc plasmid, and 8600 ng of pcDNA3 plasmid were added into the tube and mixed gently. In the case of mouse assay, a plasmid solution containing 250 ng of GAL4-mRORγ plasmid, 9000 ng of pG5-Luc plasmid, and 8750 ng of pcDNA3 plasmid was added, instead. The mixture was incubated at room temperature for 10 minutes. 9 μL each of CHO Mojo Reagent were then added into each tube and mixed gently. The mixture was incubated at room temperature for 10 minutes. The resulting transfection reagent was applied to the cell culture. After incubation at 37° C., 5% CO2 for 4 hours, the plasmid-transfected CHO cells were harvested by trypsin treatment. The collected cells were resuspended in culture medium and plated into a 384-well-white plate at 8,000 cells/50 μL/well. The plate was let stand at room temperature for 1 hour and then further incubated at 37° C., 5% CO2 for 3 hours. A test compound was dissolved in DMSO to obtain a concentration of 10 mM. Each solution was serially diluted with DMSO and further diluted with culture medium just before use. The test compound solutions were added. to the cells in the plate at 8 different concentrations. The final concentration of DMSO was 0.2% (v/v). After the addition of test compound, the cells were incubated at […], 5% CO2 for 2 days.
(§7) RORγ transcriptional activity was detected as the intracellular luciferase activity using SteadyLite HTS Reporter Gene Assay System (Perkin Elmer). SteadyLite Reagent was diluted five-fold with Extension buffer (10 mM Tricine, 0.2% (w/v) bovine serum albumin, 0.02% (v/v) Tween-20) to obtain a luciferase substrate solution. After the measurement of the cell viability with Resazurin, the medium was removed in the plate and the luciferase substrate solution was added thereto. After the incubation at room temperature for 10 minutes, luminescence of each well was measured with a microplate reader. The luciferase activity derived from the luminescence count in a vehicle-control well treated with 0.2% DMSO alone was defined as 100%, and the luciferase activity after treatment with the test compound was calculated as a percentage, %-of-control, based on the value of the vehicle-control. An EC50 value of the test compound was calculated by curve fitting with GraphPad Prism. The luminescence counts at the concentration of test compound where cytotoxicity was observed were excluded from data analysis. […]

The target of the next experiment is T2, mouse RORγ (Mus musculus, UniProt P51450).
T2 construct: from Ile251 to Lys516 for mouse RORγ; expressed in transfected cells; host or cells: CHO cells (transient co-transfection with pG5-Luc)
T2 sequence (P51450 251-516): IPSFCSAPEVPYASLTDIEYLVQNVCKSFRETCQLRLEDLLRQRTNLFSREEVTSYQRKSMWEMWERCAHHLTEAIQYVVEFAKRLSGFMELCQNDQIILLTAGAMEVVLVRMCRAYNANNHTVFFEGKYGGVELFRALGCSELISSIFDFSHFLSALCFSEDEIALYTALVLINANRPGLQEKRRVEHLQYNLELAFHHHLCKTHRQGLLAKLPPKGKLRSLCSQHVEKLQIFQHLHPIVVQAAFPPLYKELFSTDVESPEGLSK
Description: In-vitro reporter gene assay for inhibitory activity against RORγ transcription, Test Method A (GAL4-mRORγ LBD / pG5-Luc in CHO cells). The following applies: luciferase reporter, 2 days. Format: cell-based. The procedure: as §1, §2, §3, §4, §5, §6, §7

By EC50 is commonly meant the concentration giving half of the maximal effect.

For the compound `CC(C)(C)CCc1ccc(C23COC(C)(C)C2=CN(CCC(=O)O)C(=O)N3)cc1Cl` (single isomer, unassigned) [Example 6], the results for the EC50 at human RORγ and at mouse RORγ were 0.554 µM and 0.714 µM, respectively.
On to `CC(C)(C)CCc1ccc([C@@]23CCCC(C)(C)C2=CN(CCC(=O)O)C(=O)N3)cc1Cl` (single isomer, unassigned) [Example 38], for which the EC50 was 0.011 µM at human RORγ and 0.021 µM on mouse RORγ.
For `CC(C)(C)CCc1ccc(C23CCC(CCO)C2=CN(CCC(=O)O)C(=O)N3)cc1Cl` (single isomer, unassigned) [Example 25], the EC50 at human RORγ was 0.092 µM; on mouse RORγ it was 0.105 µM.
For `COCC1OC[C@@]2(c3ccc(CCC(C)(C)C)c(Cl)c3)NC(=O)N(CCC(=O)O)C=C12` (single isomer, unassigned) [Example 20] the same measures were 0.025 µM and 0.025 µM.
As for `CC(C)(C)CCc1ccc(C23CCC(C)(C)C2=CN(CCC(=O)O)C(=O)N3)cc1Cl` (single isomer, unassigned) [Example 4], the EC50 at human RORγ was found to be 1.02 µM; on mouse RORγ, 1.01 µM.
For the compound `CC(C)(C)CCc1ccc([C@@]23CCCCC2=CN(C24CC(C(=O)O)(C2)C4)C(=O)N3)cc1Cl` [Example 54, 3-{(S)-8a-[3-Chloro-4-(3,3-dimethyl-butyl)phenyl]-2-oxo-1,5,6,7,8,8a-hexahydro-2H-quinazolin-3-yl}bicyclo[1.1.1]pentane-1-carboxylic acid], the concentration for a half-maximal effect (EC50) at human RORγ was found to be 0.064 µM; on mouse RORγ it was 0.035 µM.
Take `CC(C)(C)CCc1ccc(C23CCCC(CC(N)=O)C2=CN(CCC(=O)O)C(=O)N3)cc1Cl` (racemic) [Example 51]: the EC50 at human RORγ amounted to 4.97 µM; on mouse RORγ, 1.8 µM.
On to `CC(C)(C)CCc1ccc(C23COC(C)(C)C2=CN(c2ccc(C(=O)O)cc2)C(=O)N3)cc1Cl` (single isomer, unassigned) [Example 7], for which the EC50 amounted to 0.009 µM at human RORγ and 0.011 µM at mouse RORγ.
`CC(C)(C)CCc1ccc(C23CCCC(CC#N)C2=CN(CCC(=O)O)C(=O)N3)cc1Cl` (racemic) [Example 52]: the results for the EC50 on human RORγ and at mouse RORγ were 0.018 µM and 0.029 µM, respectively.
For `COCC1OC[C@]2(c3ccc(CCC(C)(C)C)c(Cl)c3)NC(=O)N(CCC(=O)O)C=C12` (single isomer, unassigned) [Example 19] the same measures were 17.1 µM and 15.6 µM.
`CC1CCC2(c3ccc(CCC(C)(C)C)c(Cl)c3)NC(=O)N(CCC(=O)O)C=C2C1` (single isomer, unassigned) [Example 66]: the half-maximal effective concentration (EC50) at human RORγ worked out at 0.024 µM; on mouse RORγ, 0.03 µM.
For `CC(C)(C)CCc1ccc([C@@]23CCC(C)(C)CC2=CN(CCC(=O)O)C(=O)N3)cc1Cl` (single isomer, unassigned) [Example 83] the same measures were 0.014 µM and 0.018 µM.
For the compound `C[C@@H]1CCC2(c3ccc(CCC(C)(C)C)c(Cl)c3)NC(=O)N(CCC(=O)O)C=C12` (single isomer, unassigned) [Example 11], the figures for the EC50 at human RORγ and on mouse RORγ were 0.021 µM and 0.022 µM, respectively.
In the case of `C[C@@H]1CC2=CN(C34CC(C(=O)O)(C3)C4)C(=O)NC2(c2ccc(CCC(C)(C)C)c(Cl)c2)CO1` (single isomer, unassigned) [Example 72], the half-maximal effective concentration (EC50) on human RORγ is 0.028 µM; at mouse RORγ, 0.015 µM.
Turning to `CC(C)(C)CCc1ccc(C23CCC(C(F)(F)F)CC2=CN(C24CC(C(=O)O)(C2)C4)C(=O)N3)cc1Cl` (single isomer, unassigned) [Example 75], the figures for the EC50 at human RORγ and on mouse RORγ were 0.061 µM and 0.038 µM, respectively.
Turning to `COCC1CC[C@@]2(c3ccc(CCC(C)(C)C)c(Cl)c3)NC(=O)N(C34CC(C(=O)O)(C3)C4)C=C2C1` (single isomer, unassigned) [Example 85], the EC50 is 0.033 µM on human RORγ and 0.073 µM on mouse RORγ.
As for `CC(C)(C)CCc1ccc([C@]23CCCC(C)(C)C2=CN(CCC(=O)O)C(=O)N3)cc1Cl` (single isomer, unassigned) [Example 37], the figures for the concentration for a half-maximal effect (EC50) at human RORγ and at mouse RORγ were 3.87 µM and 5.51 µM, respectively.
As to `O=C(O)CCN1C=C2CCCCC2(c2ccc(OCCC3CCC3)c(Cl)c2)NC1=O` (racemic) [Example 62], the concentration giving a half-maximal response (EC50) at human RORγ is 0.151 µM; at mouse RORγ, 0.099 µM.
As to `CC(C)(C)CCc1ccc(C23CCCCC2=CN(CCC(=O)O)C(=O)N3)cc1Cl` (racemic) [Example 39], the figures for the EC50 on human RORγ and at mouse RORγ were 0.032 µM and 0.021 µM, respectively.
For `CC(C)(C)CCc1ccc(C23CCCC2=CNC(=O)N3)cc1Cl` (racemic) [Example 23] the same measures were 0.224 µM and 0.106 µM.
`CCOC(=O)CCN1C=C2C(CN)CCCC2(c2ccc(CCC(C)(C)C)c(Cl)c2)NC1=O` (racemic) [Example 47]: the results for the EC50 on human RORγ and on mouse RORγ were over 8 µM and 8.83 µM, respectively.
For the compound `CC1=C2CCCCC2(c2ccc(CCC(C)(C)C)c(Cl)c2)NC(=O)N1CCC(=O)O` (racemic) [Example 42], the EC50 was 0.29 µM at human RORγ and 0.139 µM at mouse RORγ.
As to `CC(C)(C)CCc1ccc([C@]23CCC(C)(C)CC2=CN(CCC(=O)O)C(=O)N3)cc1Cl` (single isomer, unassigned) [Example 82], the EC50 was found to be 9.87 µM on human RORγ and 9.79 µM on mouse RORγ.
For `CC(C)(C)CCc1ccc(C23CCCC2=CN(CCC(=O)O)C(=O)N3)cc1Cl` (racemic) [Example 24] the same measures were 0.332 µM and 0.126 µM.
As to `CC(C)(C)CCc1ccc(C23COC(C)(C)C2=CN(c2ccc(C(=O)O)cc2)C(=O)N3)cc1Cl` (single isomer, unassigned) [Example 8], the values for the EC50 on human RORγ and on mouse RORγ were 0.427 µM and 0.381 µM, respectively.
Turning to `CC(C)(C)COc1ccc(C23CCCC2=NNC(=O)N3)cc1Cl` (racemic) [Example 1, 4a-[3-Chloro-4-(2,2-dimethyl-propoxy)phenyl]-2,4,4a,5,6,7-hexahydro-cyclopenta[1,2,4]triazin-3-one], the 50% effective concentration (EC50) was 1.69 µM at human RORγ and 0.536 µM on mouse RORγ.
With `COCCC1CCCC2(c3ccc(CCC(C)(C)C)c(Cl)c3)NC(=O)N(CCC(=O)O)C=C12` (racemic) [Example 46], the concentration giving a half-maximal response (EC50) on human RORγ worked out at 0.302 µM; at mouse RORγ, 0.211 µM.
Turning to `CC(C)(C)CCc1ccc(C23CCC(F)(F)CC2=CN(CCC(=O)O)C(=O)N3)cc1Cl` (racemic) [Example 63], the EC50 at human RORγ and on mouse RORγ was 0.022 µM in each case.
With `CC(C)(C)CCc1ccc(C23CCCC(CCOCc4ccccc4)C2=CN(CCC(=O)O)C(=O)N3)cc1Cl` (racemic) [Example 43], the EC50 at human RORγ stood at 0.043 µM; on mouse RORγ it was 0.159 µM.

The values above are taken from patent publication US20220119355A1, “SATURATED-RING-FUSED DIHYDROPYRIMIDINONE OR DIHYDROTRIAZINONE COMPOUNDS AND PHARMACEUTICAL USE THEREOF” (Japan Tobacco Inc., priority 2018, published 2022).
